From the supplement of paper PMC9386025

Experiments:
Assay in all cases: drug sensitivity score (DSS) (DSS (dimensionless)); higher = more sensitive (stronger drug response)
[1] = tested on: FIMM-PDC3 (patient-derived ovarian cancer cells); conditions: genetic perturbation: none (patient-derived cell culture)
How it was run: (§1)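 Ovarian cancer cell lines with shRNA induced by 100 ng/ml doxycycline for at least three days, along with patient-derived cultures, were seeded at 1 000 – 1 500 cells per well onto drugs pre-plated in 384-well plates at five concentrations over a 10,000-fold range and incubated for three days at 37 °C and 5.0 % CO2. CellTiter-Glo luminescence measured on a PHERAstar FS served as the viability readout, and each drug's dose-response curve was summarised as a drug sensitivity score following an earlier published method.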

[2] = tested on: FIMM-PDC1 (patient-derived ovarian cancer cells); conditions: genetic perturbation: none (patient-derived cell culture)
How it was run: as §1

[3] = tested on: FIMM-PDC2 (patient-derived ovarian cancer cells); conditions: genetic perturbation: none (patient-derived cell culture)
How it was run: as §1

[4] = tested on: OVSAHO
How it was run: as §1

[5] = tested on: FIMM-PDC6 (patient-derived ovarian cancer cells); conditions: genetic perturbation: none (patient-derived cell culture)
How it was run: as §1

[6] = tested on: FIMM-PDC4 (patient-derived ovarian cancer cells); conditions: genetic perturbation: none (patient-derived cell culture)
How it was run: as §1

[7] = tested on: Kuramochi
How it was run: as §1

[8] = tested on: FIMM-PDC7 (patient-derived ovarian cancer cells); conditions: genetic perturbation: none (patient-derived cell culture)
How it was run: as §1

[9] = tested on: JHOS2
How it was run: as §1

[10] = tested on: FIMM-PDC5 (patient-derived ovarian cancer cells); conditions: genetic perturbation: none (patient-derived cell culture)
How it was run: as §1

[11] = genetic perturbation: DOX-induced PTK7 shRNA knockdown
[12] = genetic perturbation: DOX-induced control shRNA

| Structure (SMILES) | drug sensitivity score [1] | drug sensitivity score [2] | drug sensitivity score [3] | drug sensitivity score [4, 11] | drug sensitivity score [4, 12] | drug sensitivity score [5] | drug sensitivity score [6] | drug sensitivity score [7, 11] | drug sensitivity score [7, 12] | drug sensitivity score [8] | drug sensitivity score [9, 11] | drug sensitivity score [9, 12] | drug sensitivity score [10] |
| --- | --- | --- | --- | --- | --- | --- | --- | --- | --- | --- | --- | --- | --- |
| CC(C)[C@@H](CS(=O)(=O)C(C)C)N1C(=O)[C@@](C)(CC(=O)O)C[C@H](c2cccc(Cl)c2)[C@H]1c1ccc(Cl)cc1 [AMG-232] | < 0 | < 0 | < 0 | < 0 | < 0 | 14.2 | 7.1 | < 0 | < 0 | 15 | < 0 | < 0 | 20.3 |
| CN[C@@H](C)C(=O)N[C@H]1CN(C(=O)CC(C)C)CC[C@H]2CC[C@@H](C(=O)NC(c3ccccc3)c3ccccc3)N2C1=O [AT-406] | 10.8 | 7.9 | 10.5 | 4.3 | < 0 | 5.3 | 0.9 | 1.1 | 0.3 | 0.6 | 16.5 | 10.2 | 1.5 |
| C=CCn1c(=O)c2cnc(Nc3ccc(N4CCN(C)CC4)cc3)nc2n1-c1cccc(C(C)(C)O)n1 [AZD1775] | 17 | 21.6 | 12.9 | 16.3 | 9.6 | 4 | 10.4 | 10.3 | 9.9 | 8.8 | 8.6 | 8.3 | 19 |
| C[C@@H]1COCCN1c1cc(C2([S@](C)(=N)=O)CC2)nc(-c2cc[nH]c3nccc2-3)n1 [AZD6738] | 13 | 12.7 | 9.5 | 6.2 | 5.5 | 11 | 8.7 | 6.5 | 4.5 | 8.6 | 6 | 3.6 | 10.4 |
| O=C1CCc2c(Oc3ccc4c(c3)[C@@H]3[C@H](O4)[C@H]3c3nc4cc(C(F)(F)F)ccc4[nH]3)ccnc2N1 [BGB-283] | 4.1 | 1.05 | 3.4 | 2.4 | 4 | 7.3 | 7.7 | 3.6 | 1.7 | 5.8 | 1.8 | 6.4 | 10.4 |
| CO[C@H]1CC[C@H](N2C(=O)CNc3ncc(-c4ccc(C(C)(C)O)nc4)nc32)CC1 [CC-223] | 3.5 | 3.2 | 4.7 | 6.6 | 4.9 | 5.3 | 5.9 | 5.1 | 4.6 | 9.5 | 3.3 | 3.3 | 10.3 |
| CC1(C)OCCn2c1nc1c(N3CCOCC3)nc(-c3cnc(N)nc3)nc12 [GDC-0084] | 7.9 | 7.65 | 10.3 | 10.2 | 9.7 | 13.3 | 13.1 | 10.2 | 6.3 | 14.2 | 7 | 8.5 | 17 |
| CNC(=O)c1ccccc1Nc1cc(Nc2ccc(N3CCOCC3)cc2OC)ncc1C(F)(F)F [VS-4718] | 3.8 | 5.4 |  | 5.7 | 9.9 | 10.3 | 9.2 | 10.8 | 4.8 | 5.4 | 5.9 | 3.7 | 8 |
| CCCCC(=O)OCC(=O)[C@]1(O)Cc2c(O)c3c(c(O)c2[C@@H](O[C@H]2C[C@H](NC(=O)C(F)(F)F)[C@H](O)[C@H](C)O2)C1)C(=O)c1c(OC)cccc1C3=O [Valrubicin] | 7.3 | 5.75 |  | 6.7 | 5.8 | 7.2 | 7.7 | 5.25 | 5.1 | 7 | 5.7 | 7.5 | 8 |
| C[C@@H]1COC(Nc2ccc3ncnc(Nc4ccc(OCc5nccs5)c(Cl)c4)c3c2)=N1 [Varlitinib] | 8.6 | 1.1 |  | 1.2 | < 0 | 5.2 | 9.5 | 0.05 | < 0 | 6.9 | < 0 | < 0 | 12.6 |
| O=C(/C=C\n1cnc(-c2cc(C(F)(F)F)cc(C(F)(F)F)c2)n1)NNc1ccccn1 [Verdinexor] | 10.9 | 3.7 |  | 6.1 | 3.2 | 11.7 | 11.2 | 4.4 | 5.2 | 11.5 | 11.3 | 7.7 | 11 |
| CC[C@]1(O)C[C@@H]2CN(CCc3c([nH]c4ccccc34)[C@@](C(=O)OC)(c3cc4c(cc3OC)N(C)[C@H]3[C@@](O)(C(=O)OC)[C@H](OC(C)=O)[C@]5(CC)C=CCN6CC[C@]43[C@@H]65)C2)C1 [Vinblastine] | 13 | 15.3 |  | 2 | 9 | 0.7 | 7.6 | 2.8 | 3.9 | 8.9 | 3.7 | 9.7 | 8.2 |
| CCC1=C[C@@H]2CN(C1)Cc1c([nH]c3ccccc13)[C@@](C(=O)OC)(c1cc3c(cc1OC)N(C)[C@H]1[C@@](O)(C(=O)OC)[C@H](OC(C)=O)[C@]4(CC)C=CCN5CC[C@]31[C@@H]54)C2 [Vinorelbine] | 26.2 | 19.2 |  | 22.6 | 18.5 | 18.6 | 26.7 | 20.3 | 7.2 | 12.8 | 19.4 | 17.1 | 27.2 |
| CNC(=O)c1cccc(-c2ccc3c(N4CCOC[C@@H]4C)nc(N4CCOC[C@@H]4C)nc3n2)c1 [Vistusertib] | 7.8 | 8.75 |  | 12.6 | 14.3 | 13 | 14.9 | 9.7 | 12.4 | 18.6 | 6.1 | 10.5 | 23.9 |
| CC[C@@H]1C(=O)N(C)c2cnc(Nc3ccc(C(=O)N[C@H]4CC[C@H](N5CCN(CC6CC6)CC5)CC4)cc3OC)nc2N1C(C)C [Volasertib] | 7 | 3.9 |  | 6.4 | 6.4 | 0.9 | 6 | 9.65 | 2.4 | 4.2 | 14.2 | 4.7 | 14.8 |
| O=C(CCCCCCC(=O)Nc1ccccc1)NO [Vorinostat] | 7.9 | 6 |  | 8.3 | 7.2 | 10.1 | 4.9 | 9.45 | 4.8 | 6.3 | 3.2 | 6.1 | 10.4 |
| Oc1nc(-c2ccc(C(F)(F)F)cc2)nc2c1CSCC2 [XAV-939] | 1.5 | 1.1 |  | 2.1 | 3 | 4.1 | 1.6 | 0.35 | 0.1 | 10.8 | < 0 | 0.7 | 6.3 |
| FC(F)c1nc2ccccc2n1-c1nc(N2CCOCC2)nc(N2CCOCC2)n1 [ZSTK474] | 10 | 8.5 |  | 13.5 | 14 | 11.8 | 13.9 | 13.8 | 7.5 | 15.7 | 6.6 | 8.1 | 17.4 |
| Cc1sc2c(c1C)C(c1ccc(Cl)cc1)=N[C@@H](CC(=O)NCCCCNC(=O)COc1cccc3c1C(=O)N(C1CCC(=O)NC1=O)C3=O)c1nnc(C)n1-2 (stereo partly specified) [dBET1] | 2.7 | 0.1 | 2.6 | 4.3 | 3.4 | 7.5 | 8.1 | 3.9 | 4.4 | 5.8 | 3.2 | 5.5 | 11 |
